# Reference: publication PMC10301432, “Antiplasmodial, Trypanocidal, and Genotoxicity In Vitro Assessment of New Hybrid α,α-Difluorophenylacetamide-statin Derivatives” (Pharmaceuticals, 2023)
# Counter-ions that a name gives are not always drawn. Like-named read-outs stand apart in the source and are kept apart here.
# Assays:
# [1] = tested on: HepG2 cells; assay: In vitro micronuclei assay, HepG2; type: cell-based, human; conditions: human, 3 h
# Procedure: Fresh HepG2 and CHO-K1 cells were seeded at the density of 1 × 10^5 cells/mL into 24-well plates (1 mL/per well). The compounds 13 (a–d) were then added to the medium to final concentrations of 500, 1000 and 2000 µM and incubation continued for 3 h or 24 h. DMSO 10% was used as the negative control, and, BaP (80 µM) for HepG2 and MMC (5 µM) for CHO-K1 were the positive controls. After exposure to the compounds, the cells were incubated for more than 24 h under growth conditions before quantification of the micronuclei and cytotoxicity. The cytogenetic studies were carried out in triplicate as described previously (see [51]). In order to determine the mitotic index and the number of cells with micronuclei, the medium was replaced by a cold methanol-glacial acetic acid (3:1) fixative for 30 min, and the cells then rinsed with distilled water for 2 min and air dried. The fixed cells were stained with 4,6-diamidino-2-phenylindole (DAPI) ([…]) dissolved in McIlvaine buffer (0.1 M citric acid plus 0.2 M Na2HPO4, pH 7.0) for 60 min, washed with McIlvaine buffer for 5 min, briefly rinsed with distilled water and mounted in glycerol. To determine the mitotic index and the number of cells with micronuclei, 1000 cells per well (3000 cells per concentration) were analyzed under a fluorescence microscope. The results for micronuclei were presented as the percentage of cells containing micronuclei in the 3000 cells/concentration group analyzed. Cells that glowed brightly and had homogenous nuclei were considered as having normal phenotypic morphology. Apoptotic nuclei were identified by the condensed chromatin at the periphery of the nuclear membrane or by fragmented nuclear body morphology. Necrotic cells presented chromatin forms with irregularly shaped aggregates, a pyknotic nucleus (shrunken and darkly stained) and cell membrane disruption, with cellular debris spilled into the extracellular milieu. Once again, 3000 cells were counted and the percentage of viable cells was evaluated, discounting apoptotic and necrotic cells. Statistical differences between the groups were analyzed by two-way ANOVA (p < 0.01) and Tukey’s post hoc test.
# [2] = tested on: intracellular forms of T. cruzi (Tulahuen strain transfected with β-galactosidase); assay: Activity against intracellular T. cruzi in L929 cells; type: cell-based, Trypanosoma cruzi; conditions: for EC50: Trypanosoma cruzi, L929, intracellular forms, Tulahuen strain, read-out: EC50; for EC50 / 10µM (% of Parasite Lysis): 96 h; for 10µM (% of Parasite Lysis): fixed concentration 10 µM
# Procedure: Tissue culture-derived trypomastigotes (Tulahuen strain expressing the E. coli β-galactosidase gene) were maintained in L929 cell lines and collected from the supernatant after 96 h of parasite infection, following previously established protocols. Briefly, after 24 h of L929 platting (4 × 10^3 cells/well), the cultures were incubated with trypomastigotes (10:1 parasite/host cell ratio) for 2 h at 37 °C. Then, the cell cultures were rinsed to remove non-internalized parasites and then further incubated for 24 h at 37 °C. Then the infected cultures were followed using two sequential protocols. […] After this period, 50 µL chlorophenol red glycoside (500 µM) in 0.5% Nonidet P40 was added to each well and the plate was incubated for more than 18 h at 37 °C, after which the absorbance was measured at 570 nm. […] Controls with untreated and Bz-treated cells are run in parallel. The results were expressed as the percent difference in the reduction between treated and untreated cells.
# [3] = tested on: trypomastigote forms of T. cruzi (Y strain); assay: Trypanocidal activity on bloodstream trypomastigotes; type: cell-based, Trypanosoma cruzi; conditions: for EC50: Trypanosoma cruzi, bloodstream trypomastigotes, Y strain, 24 h at 37 °C
# Procedure: (§1) Bloodstream trypomastigote forms (BT) of the Y strain were obtained from infected albino Swiss mice at the peak of parasitemia, isolated by differential centrifugation and resuspended in DMEM to a parasite concentration of 10^7 cells/mL in the presence of 10% of mouse blood. This suspension (100 µL) was added in the same volume of 13 (a–d) and 14 (a–d) previously prepared at twice the desired final concentrations.
# [4] = tested on: P. falciparum parasites (W2 clone) chloroquine-resistant; assay: Antiplasmodial activity, anti-HRPII assay; type: cell-based, Plasmodium falciparum; conditions: for EC50: Plasmodium falciparum, W2, 24 h; for SI: LC50 (HepG2)/EC50 (P. falciparum); for Antiplasmodial Activity: summarized outcome
# Excerpt: P. falciparum W2 clone was maintained in continuous culture as previously described. […] Prior to testing, the ring-stage parasites were synchronized using sorbitol.
# The test quantification was read at 450 nm on a spectrophotometer (SpectraMax340PC384, Molecular Devices Sunnyvale, CA, USA), and the drug activity was expressed as the half-maximal inhibitory concentration (EC50) compared to the drug-free controls using the curve-fitting software Origin 8.0 (OriginLab Corporation, Northampton, MA, USA).
# [5] = tested on: intracellular forms of T. cruzi (Tulahuen strain transfected with β-galactosidase); parameters: method as in PMID 24590476; conditions: read-out: EC90 value of Bz against intracellular forms of T. cruzi; cited from earlier work
# [6] = in vitro; type: cell-based; conditions: mouse
# Procedure: Primary cultures of cardiac cells (CC) were obtained as reported in [50]. The cultures were sustained in Dulbecco’s modified Eagle’s medium (DMEM) supplemented with 10% horse serum, 5% fetal bovine serum (FBS), 2.5 mM CaCl2, 1 mM L-glutamine, and 2% chicken embryo extract. Cell cultures were maintained at 37 °C in an atmosphere of 5% CO2, and assays were run at least three times in triplicate.
# (§2) Cardiac cell cultures were incubated for 24 h at 37 °C with different concentrations of the compounds (up to 200 µM) diluted in DMEM (without phenol red). Their morphology and spontaneous contractibility were evaluated by light microscopy and then the cellular viability was determined by the PrestoBlue® assay. For this colorimetric bioassay, PrestoBlue® (Invitrogen, Waltham, MA, USA) was added to each well (using a 10:1 medium/dye), the plate was further incubated for 24 h followed by optical density (OD) measurement performed at 570 and 600 nm, as recommended by the manufacturer.
# [7] = in vitro; type: cell-based; conditions: mouse; remark: listed apart in the source
# Procedure: as §2
# [8] = in vitro; type: cell-based; conditions: human
# Procedure: Human hepatocellular carcinoma (HepG2) and Chinese Hamster Ovary (CHO-K1) cells obtained from the American Type Culture Collection (Manassas, VA, USA) were cultured in Eagle’s medium (MEM, Gibco®, Waltham, MA, USA) containing 10% fetal bovine serum (FBS) plus 100 µg/mL streptomycin and 100 µg/mL penicillin at 37 °C in a 5% CO2 atmosphere. Logarithmic-phase cells were used in all the experiments.
# Fresh HepG2 and CHO-K1 cells were seeded at a density of 1 × 10^4/well. […] Briefly, after treatment, the culture medium was replaced by 90 μL fresh culture medium and 10 μL WST-1 reagent and incubated at 37 °C and 5% CO2 for 3 h. The absorbance was then measured at 440 nm according to the kit protocol.
# [9] = tested on: T. cruzi; assay: Trypanocidal in vitro phenotypic screening, overall outcome; type: cell-based, Trypanosoma cruzi; conditions: summarized outcome
# Procedure: as §1
# Tissue culture-derived trypomastigotes (Tulahuen strain expressing the E. coli β-galactosidase gene) were maintained in L929 cell lines and collected from the supernatant after 96 h of parasite infection, following previously established protocols. Briefly, after 24 h of L929 platting (4 × 10^3 cells/well), the cultures were incubated with trypomastigotes (10:1 parasite/host cell ratio) for 2 h at 37 °C. Then, the cell cultures were rinsed to remove non-internalized parasites and then further incubated for 24 h at 37 °C. Then the infected cultures were followed using two sequential protocols. […] After this period, 50 µL chlorophenol red glycoside (500 µM) in 0.5% Nonidet P40 was added to each well and the plate was incubated for more than 18 h at 37 °C, after which the absorbance was measured at 570 nm. Then, the compounds were next evaluated using dose–response assays in which Tulahuen-infected-L929 cells were exposed to different non-toxic concentrations of each compound (0–50 µM) and then after 96 h of incubation the same procedure was conducted as above reported. Controls with untreated and Bz-treated cells are run in parallel. The results were expressed as the percent difference in the reduction between treated and untreated cells.
# [10] = P. falciparum W2 clone, 24 h at 37 °C, read-out: EC50
smiles,measurement,setting,value
"CC(C)c1c(C(=O)Nc2ccccc2)c(-c2ccccc2)c(-c2ccc(F)cc2)n1CC[C@@H](O)C[C@@H](O)CC(=O)O [AVA, atorvastatin, reference compound]",cytotoxicity (survival rate) in micronuclei assay,[1],significant cytotoxic effects upon 1000 µM
same,EC50,[2],45.3 ± 3.06 µM
same,10µM (% of Parasite Lysis),[2],31.73 ± 5.80%
same,EC50,[3],7.07 ± 1.78 µM
same,EC50,[4]; [10],10.3 ± 1.2 µM
"O=C(Cn1ccnc1[N+](=O)[O-])NCc1ccccc1 [Benznidazole, benznidazole, reference compound]",EC90,[5],10 µM
same,CC50 at 24 h,[6],> 1000 µM
same,SI,[2]; LC50 (L929)/EC50 (intracellular forms),92.4
same,EC50,[2],1.83 ± 0.73 µM
same,10µM (% of Parasite Lysis),[2],87.84 ± 7.08%
same,SI,[3]; LC50 (cardiac cells)/EC50 (trypomastigotes),>77
same,EC50,[3],13 ± 2 µM
same,CC50 at 96 h,[7],169 ± 27.2 µM
"CCN(CC)CCCC(C)Nc1ccnc2cc(Cl)ccc12 (stereo not drawn) [Chloroquine, chloroquine, reference compound]",EC50,[4],0.59 ± 0.03 µM
"CC(=O)Nc1ccccc1C(F)(F)C(=O)NCC[C@@H](O)C[C@@H](O)CC(=O)O [Compound 14a, Sodium (3R,5R)-7-(2-(2-acetamido-phenyl)-2,2-difluoroacetamide)-3,5-dihydroxyheptanoate salt]",CC50 at 24 h,[8],> 488 µM
same,Trypanocidal Activity,[9],No
same,CC50 at 24 h,[6],> 500 µM
same,EC50,[3],> 500 µM
same,SI,[4],Inactive
same,EC50,[4]; [10],> 122 µM
same,Antiplasmodial Activity,[4],No
"CC(=O)Nc1ccc(C)cc1C(F)(F)C(=O)NCC[C@@H](O)C[C@@H](O)CC(=O)O [Compound 14b, Sodium (3R,5R)-7-(2-(2-acetamido-5-methylphenyl)-2,2-difluoroacetamide)-3,5-dihydroxyheptanoate salt]",CC50 at 24 h,[8],> 472 µM
same,Trypanocidal Activity,[9],No
same,CC50 at 24 h,[6],> 500 µM
same,EC50,[3],> 500 µM
same,SI,[4],Inactive
same,EC50,[4]; [10],> 118 µM
same,Antiplasmodial Activity,[4],No
"CC(=O)Nc1ccc(Cl)cc1C(F)(F)C(=O)NCC[C@@H](O)C[C@@H](O)CC(=O)O [Compound 14c, Sodium (3R,5R)-7-(2-(2-acetamido-5-chlorophenyl)-2,2-difluoroacetamide)-3,5-dihydroxyheptanoate salt]",CC50 at 24 h,[8],> 450 µM
same,Trypanocidal Activity,[9],No
same,CC50 at 24 h,[6],> 500 µM
same,EC50,[3],> 500 µM
same,SI,[4],Inactive
same,EC50,[4]; [10],> 112 µM
same,Antiplasmodial Activity,[4],No
"CC(=O)Nc1ccc(Br)cc1C(F)(F)C(=O)NCC[C@@H](O)C[C@@H](O)CC(=O)O [Compound 14d, Sodium (3R,5R)-7-(2-(2-acetamido-5-bromophenyl)-2,2-difluoroacetamide)-3,5-dihydroxyheptanoate salt]",CC50 at 24 h,[8],> 409 µM
same,Trypanocidal Activity,[9],No
same,CC50 at 24 h,[6],> 500 µM
same,EC50,[3],> 500 µM
same,SI,[4],Inactive
same,EC50,[4]; [10],> 102 µM
same,Antiplasmodial Activity,[4],No
